{"source": "ChEMBL document CHEMBL4321852", "about": "“Structure-Based and Property-Driven Optimization of N-Aryl Imidazoles toward Potent and Selective Oral RORγt Inhibitors” (J Med Chem, 2019)", "key": {"[1]": {"molecular_target": "T1, Bile acid receptor (Homo sapiens, UniProt Q96RI1)", "T1 sequence (Q96RI1 whole entry)": "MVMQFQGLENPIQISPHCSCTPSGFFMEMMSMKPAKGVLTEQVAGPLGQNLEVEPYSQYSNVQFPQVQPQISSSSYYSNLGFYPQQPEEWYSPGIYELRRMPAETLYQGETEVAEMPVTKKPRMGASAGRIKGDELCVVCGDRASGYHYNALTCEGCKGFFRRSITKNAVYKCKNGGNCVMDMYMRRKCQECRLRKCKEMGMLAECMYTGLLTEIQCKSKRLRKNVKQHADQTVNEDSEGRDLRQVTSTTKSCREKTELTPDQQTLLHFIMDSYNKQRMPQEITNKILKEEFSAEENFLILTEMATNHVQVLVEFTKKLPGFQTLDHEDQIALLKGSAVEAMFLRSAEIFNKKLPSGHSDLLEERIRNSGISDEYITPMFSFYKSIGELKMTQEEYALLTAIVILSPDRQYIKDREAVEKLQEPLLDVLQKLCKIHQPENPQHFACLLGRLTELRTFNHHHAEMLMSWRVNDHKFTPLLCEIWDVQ", "experiment": "Inhibition of Gal4-tagged FXR LBD (unknown origin) by cell based luciferase reporter gene assay"}, "[2]": {"molecular_target": "T2, Retinoic acid receptor RXR-alpha (Homo sapiens, UniProt P19793)", "T2 sequence (P19793 whole entry)": "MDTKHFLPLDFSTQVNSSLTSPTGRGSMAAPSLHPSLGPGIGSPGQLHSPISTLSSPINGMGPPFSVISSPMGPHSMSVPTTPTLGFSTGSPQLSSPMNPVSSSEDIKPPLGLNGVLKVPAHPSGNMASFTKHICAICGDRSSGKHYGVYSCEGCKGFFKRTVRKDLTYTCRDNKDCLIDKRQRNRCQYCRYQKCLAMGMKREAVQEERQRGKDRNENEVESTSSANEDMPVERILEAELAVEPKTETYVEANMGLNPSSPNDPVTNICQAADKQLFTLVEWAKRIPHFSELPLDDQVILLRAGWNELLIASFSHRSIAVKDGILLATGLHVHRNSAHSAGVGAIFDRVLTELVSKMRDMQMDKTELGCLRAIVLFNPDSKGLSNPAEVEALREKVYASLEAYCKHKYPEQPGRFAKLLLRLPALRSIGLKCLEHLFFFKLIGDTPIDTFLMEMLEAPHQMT", "experiment": "Inhibition of Gal4-tagged RXRalpha LBD (unknown origin) by cell based luciferase reporter gene assay"}, "[3]": {"molecular_target": "T3, Peroxisome proliferator-activated receptor gamma (Homo sapiens, UniProt P37231)", "T3 sequence (P37231 whole entry)": "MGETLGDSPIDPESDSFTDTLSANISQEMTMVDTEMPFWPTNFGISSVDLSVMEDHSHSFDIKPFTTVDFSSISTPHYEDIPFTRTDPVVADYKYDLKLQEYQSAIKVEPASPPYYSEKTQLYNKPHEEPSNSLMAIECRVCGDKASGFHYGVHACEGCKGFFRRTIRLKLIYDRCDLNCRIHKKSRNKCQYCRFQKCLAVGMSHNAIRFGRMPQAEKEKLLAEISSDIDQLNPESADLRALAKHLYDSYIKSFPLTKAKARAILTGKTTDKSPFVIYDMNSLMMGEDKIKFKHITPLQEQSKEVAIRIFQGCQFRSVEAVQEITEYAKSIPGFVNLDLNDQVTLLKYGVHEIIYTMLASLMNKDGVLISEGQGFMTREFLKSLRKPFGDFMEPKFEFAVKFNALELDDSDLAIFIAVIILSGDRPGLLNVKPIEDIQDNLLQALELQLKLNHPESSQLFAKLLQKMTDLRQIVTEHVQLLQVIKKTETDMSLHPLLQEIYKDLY", "experiment": "Inhibition of Gal4-tagged PPARgamma LBD (unknown origin) by cell based luciferase reporter gene assay"}, "[4]": {"molecular_target": "T4, Glucocorticoid receptor (Homo sapiens, UniProt P04150)", "T4 sequence (P04150 whole entry)": "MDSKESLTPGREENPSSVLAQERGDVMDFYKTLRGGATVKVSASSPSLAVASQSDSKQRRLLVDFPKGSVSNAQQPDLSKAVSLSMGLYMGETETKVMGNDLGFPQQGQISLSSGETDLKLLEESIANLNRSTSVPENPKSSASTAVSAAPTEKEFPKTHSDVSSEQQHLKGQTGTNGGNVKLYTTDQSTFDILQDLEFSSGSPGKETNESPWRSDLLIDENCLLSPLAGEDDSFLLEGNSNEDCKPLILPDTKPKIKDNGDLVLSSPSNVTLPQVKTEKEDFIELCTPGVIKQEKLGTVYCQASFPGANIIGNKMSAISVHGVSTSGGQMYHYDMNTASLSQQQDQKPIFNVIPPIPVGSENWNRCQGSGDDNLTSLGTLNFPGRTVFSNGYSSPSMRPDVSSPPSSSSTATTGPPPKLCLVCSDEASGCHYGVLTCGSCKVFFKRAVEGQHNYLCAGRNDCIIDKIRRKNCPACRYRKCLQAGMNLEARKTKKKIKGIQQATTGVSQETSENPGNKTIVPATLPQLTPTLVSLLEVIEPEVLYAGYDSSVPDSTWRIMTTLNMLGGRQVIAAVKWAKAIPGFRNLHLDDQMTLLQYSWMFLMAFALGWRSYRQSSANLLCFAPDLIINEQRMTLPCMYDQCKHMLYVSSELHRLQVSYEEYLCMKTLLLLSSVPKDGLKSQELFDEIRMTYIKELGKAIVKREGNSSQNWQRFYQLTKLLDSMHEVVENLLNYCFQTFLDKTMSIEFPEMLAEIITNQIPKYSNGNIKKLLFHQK", "experiment": "Inhibition of Gal4-tagged GR LBD (unknown origin) by cell based luciferase reporter gene assay"}, "[5]": {"system": "Rattus norvegicus", "experiment": "Anti-inflammatory activity in mBSA/CFA-immunized Lewis rat delayed-type hypersensitivity model assessed as reduction in ear swelling at 1 mg/kg, po via gavage administered twice daily for 2 days treated prior to mBSA/CFA challenge measured after up to 50 hrs", "type": "functional, organism-based"}}, "note": "Activity calls are given as the source filed them. The calls are words filed in the database; no cut-off is given here."}
{"smiles": "Cc1c(C2(C(F)(F)F)CC2)nc(C2CC2)n1-c1c(Cl)ccc(N2CC3(CC(C(=O)O)C3)C2)c1Cl", "note": "(single isomer, unassigned; atropisomer)", "values": [{"measurement": "IC50", "setting": "[1]", "value": "> 10", "unit": "µM"}, {"measurement": "IC50", "setting": "[2]", "value": "> 10", "unit": "µM"}, {"measurement": "IC50", "setting": "[3]", "value": "> 10", "unit": "µM"}, {"measurement": "IC50", "setting": "[4]", "value": "> 10", "unit": "µM"}, {"measurement": "Activity", "setting": "[5]", "value": "inactive"}]}
